Measured values: publication PMC11415492 (Nature Communications, 2024)
Values joined by “and” are separate entries in the source; they are usually repeats but may differ in a detail not shown here. Identical values can stand only once. Counter-ions that a name gives are not always drawn. Like-named read-outs stand apart in the source and are kept apart here.

Tests used:
rKOR = target: T1, rKOR (Rattus norvegicus, UniProt P34975); test: Nanobody Nb33 sensor recruitment BRET assay; assay type: cell-based; conditions: for response, Fig. S5c concentration-response point (replicates): Log [Drug]
T1 construct: signal peptide (N); expressed in transfected cells; host or cells: HEK-293T, transient (PEI)
T1 sequence (P34975 whole entry): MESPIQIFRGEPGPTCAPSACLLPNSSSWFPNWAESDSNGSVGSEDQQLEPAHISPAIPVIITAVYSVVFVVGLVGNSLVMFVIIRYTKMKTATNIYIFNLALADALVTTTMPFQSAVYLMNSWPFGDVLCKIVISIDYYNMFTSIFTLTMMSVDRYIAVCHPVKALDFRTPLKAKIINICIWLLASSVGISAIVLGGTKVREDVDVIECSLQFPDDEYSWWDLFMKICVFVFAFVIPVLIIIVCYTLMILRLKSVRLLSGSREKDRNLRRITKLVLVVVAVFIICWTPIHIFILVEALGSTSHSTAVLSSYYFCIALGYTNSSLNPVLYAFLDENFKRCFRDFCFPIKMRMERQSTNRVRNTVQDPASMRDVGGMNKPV

rat NMDA receptor = test: rat NMDA radioligand displacement ([3H]MK-801); assay type: binding

## CCC1CC2CC3c4[nH]c5ccc(O)cc5c4CCN(C2)C13 (stereo not shown) [Noribogaine, Noribogaine hydrochloride]
rKOR; M = -4
  response, Fig. S5c concentration-response point (replicates): 0.6832 and -2.533 and 1.849 and 9.706 and 9.178 and 4.549 and -7.153 and 2.312 and 4.8409
rKOR; M = -5
  response, Fig. S5c concentration-response point (replicates): 9.7994 and 6.733 and 8.435 and 9.706 and 10.7702 and 15.0341 and 0.9856 and -0.8825 and 4.299
rKOR; M = -6
  response, Fig. S5c concentration-response point (replicates): 9.626 and 6.623 and 8.559 and 3.312 and 9.163 and -0.7272 and 9.077 and 6.531 and 9.714
rKOR; M = -7
  response, Fig. S5c concentration-response point (replicates): 8.087 and 5.264 and 16.9405 and 8.98 and 10.0186 and 11.1512 and 4.05 and 6.477 and 19.1494
rKOR; M = -8
  response, Fig. S5c concentration-response point (replicates): 10.1716 and 9.452 and 9.651 and 4.904 and -0.3201 and 10.6815 and 14.8896 and 2.949 and 7.869
rKOR; M = -9
  response, Fig. S5c concentration-response point (replicates): 2.743 and 3.189 and 8.9111 and 2.535 and 1.402 and 3.813 and 4.639 and -0.2876 and 6.5008
rKOR; M = -10
  response, Fig. S5c concentration-response point (replicates): 4.986 and 10.7522 and 12.8464 and -2.314 and -2.554 and 4.868 and 5.9 and 1.688 and 15.6928
rKOR; M = -11
  response, Fig. S5c concentration-response point (replicates): 8.177 and 6.107 and 7.7052 and 7.712 and 6.632 and -6.719 and 26.9849 and 11.0819 and 18.0666
rKOR; at 100 µM
  % effect at 100 µM: < 4%
Rat NMDA receptor
  IC50: 42 µM
Rat NMDA receptor; 1.00E-04 M
  NMDA receptor radioligand displacement, concentration-response point (Fig. S3c): 73
Rat NMDA receptor; 1.00E-05 M
  NMDA receptor radioligand displacement, concentration-response point (Fig. S3c): 14
Rat NMDA receptor; 1.00E-06 M
  NMDA receptor radioligand displacement, concentration-response point (Fig. S3c): 5
Rat NMDA receptor; 2.15E-05 M
  NMDA receptor radioligand displacement, concentration-response point (Fig. S3c): 32
Rat NMDA receptor; 4.64E-05 M
  NMDA receptor radioligand displacement, concentration-response point (Fig. S3c): 53
Rat NMDA receptor; [3H]MK-801 displacement, n = 1
  IC50: 42.2 µM
